{"source": "patent US11052065B2", "about": "“Compositions and methods for treating cancer with a combination of programmed death receptor (PD-1) antibodies and a CXCR2 antagonist” (Merck Sharp & Dohme Corp., priority 2017, dated 2021)", "tested_on": "B16-F10 melanoma tumor", "assay": "Anti-tumor efficacy in mouse B16-F10 melanoma syngeneic tumor model", "type": "in vivo, C57Bl/6 mice", "settings": "single agent treatment groups (navarixin 300 mg/kg bid + isotype control; anti-PD-1 10 mg/kg + vehicle); 12 mice per group; FIGS. 3 and 4", "protocol": "The combination anti-tumor efficacy of a CXCR2 antagonist and anti-mouse PD-1 antibody muDX400 was assessed in the B16-F10 melanoma tumor model, syngeneic to the C57Bl/6 strain. This experiment compared the anti-tumor response of tumor-bearing mice to treatment with one of three regimens: monotherapy with a murine anti-mouse PD-1 monoclonal antibody (Anti-PD-1), monotherapy with a CXCR2 antagonist (navarixin) and combination therapy with these two agents administered concurrently.\nTumor-bearing mice for this study were initiated by implanting 0.4×10^6 log-phase and sub-confluent B16-F10 cells on the right lower dorsal flank of 7-8 week old female C57Bl/6 mice with an average body weight of 18 grams. When the mean tumor volume in these mice reached ˜70 cubic mm (50 mm^3-80 mm^3), the tumor-bearing mice were randomized to 5 treatment groups of 12 mice per group:\n(1) Isotype Control+Vehicle;\n(2) Isotype Control+Navarixin (bid);\n(4) Anti-PD-1+Navarixin (bid) and;\n(5) Anti-PD-1+Navarixin (qd).\nThe monoclonal antibody against murine PD-1 was of the isotype IgG1. The isotype control was a mouse monoclonal antibody specific for adenoviral hexon 25 and was of the isotype IgG1. […] The tumor volume was assessed using Vernier calipers.", "data": [{"smiles": "CC[C@@H](Nc1c(Nc2cccc(C(=O)N(C)C)c2O)c(=O)c1=O)c1ccc(C)o1", "note": "[navarixin, 2-hydroxy-N,N-dimethyl-3-{2-[[(R)-1-(5-methylfuran-2-yl)propyl]amino]-3,4-dioxocyclobut-1-enylamino}benzamide]", "values": [{"measurement": "complete and partial regressions", "result": "not observed"}]}]}
